Results on two compounds are retold here after ChEMBL document CHEMBL5257138, “Cytosolic Enzymes Generate Cannabinoid Metabolites 7-Carboxycannabidiol and 11-Nor-9-carboxytetrahydrocannabinol” (ACS Med Chem Lett, 2023).

What all share (type): ADME, subcellular
Series [1] can be described thus: Drug metabolism in human liver S9 fraction assessed as reduction in metabolite 11-COOH-THC formation by measuring WIN18446 IC50 incubated for 10 mins in presence of NAD+ by LC-MS/MS analysis.
Series [2] is described as follows: Drug metabolism in human liver S9 fraction assessed as metabolite 11-COOH-THC formation at 1 uM incubated for 10 mins in presence of NAD+ by LC-MS/MS analysis. Conditions: s9, 10 min.
Series [3] can be described thus: Drug metabolism in human liver S9 fraction assessed as reduction in metabolite 11-COOH-THC formation by measuring hydralazine IC50 incubated for 20 mins in presence of NAD+ by LC-MS/MS analysis.
A short description of series [4]: Drug metabolism in human liver S9 fraction assessed as metabolite 7-COOH-CBD formation at 1 uM incubated for 20 mins in presence of NADPH by LC-MS/MS analysis. Conditions: s9, 20 min.
Series [5] in a line: Drug metabolism in human liver cytosol assessed as reduction in metabolite 7-COOH-CBD formation by measuring WIN18446 IC50 in presence of NAD+ measured after 30 mins by LC-MS/MS analysis.
Series [6] in a line: Drug metabolism in human liver cytosol assessed as metabolite 7-COOH-CBD formation at 1 uM incubated for 20 mins in presence of NADPH and NAD+ by LC-MS/MS analysis.
Series [7] is described as follows: Drug metabolism in human liver S9 fraction assessed as metabolite 7-COOH-CBD formation at 1 uM incubated for 20 mins in presence of NADPH and NAD+ by LC-MS/MS analysis. The settings on record: s9, 20 min.

The IC50 is the concentration that gives 50% inhibition.

On to `CCCCCc1cc(O)c2c(c1)OC(C)(C)[C@@H]1CCC(CO)=C[C@@H]21`, for which the half-maximal inhibitory concentration (IC50) is above 60000 nM in series [1] and 53 nM in series [3]. In series [2], the Drug metabolism result is recorded as “Metabolite_Detected”.
On to `C=C(C)[C@@H]1CCC(CO)=C[C@H]1c1c(O)cc(CCCCC)cc1O`, for which the figures for the Drug metabolism result in series [4], in series [6] and in series [7] were “Metabolite_Notdetected”, “Metabolite_Detected” and “Metabolite_Detected”, respectively. Also, the IC50 in series [5] is 285 nM.
